Results taken from patent US11364189B2, “Method for the treatment of keratin materials using amide C-glycoside derivatives, and cosmetic composition containing same” (L'OREAL, priority 2016, dated 2022).

The compounds below were run on normal human melanocytes (assay: Depigmenting activity (reduction of melanin production) in normal human melanocytes in vitro). Details: run 1, 72 hours incubation, optical density (melanin).
Assay type: cell-based
Procedure: The measurement of the depigmenting activity (reduction of melanin production) of compounds of formula (I) was performed by assaying normal human melanocytes in vitro as follows.
First, normal human melanocytes are cultured and distributed in wells. After 24 hours, the culture medium was replaced with a medium containing the compounds of formula (I) to be evaluated. The cells were incubated for 72 hours before measuring the final optical density, which measures the amount of melanin produced by the melanocytes. The compounds are tested at 100 μM after calibration.
Various test runs were performed and the results are collated in the following table.

First: NC(=O)[C@@H](CO)NC(=O)C(O)[C@@H]1OC[C@@H](O)[C@H](O)C1O (single isomer, unassigned) [Compound 11-dia1]
Second: NC(=O)CNC(=O)C(O)[C@@H]1OC[C@@H](O)[C@H](O)C1O (stereo partly shown) [Compound 10]
The “% Depigmentation at 100 μM (run 1)” value of the first is higher: 28% for the first, 20% for the second.

Compared with `O=C(O)c1ccc(NC(=O)C(O)C2O[C@H](CO)[C@@H](O)[C@H](O)[C@H]2O)cc1O` (stereo partly shown) [Compound 1], `NC(=O)CNC(=O)C(O)[C@@H]1O[C@H](CO)[C@@H](O)[C@H](O)C1O` (stereo partly shown) [Compound 4] is higher in “% Depigmentation at 100 μM (run 1)” value: 13% for the first, 19% for the second.

Compared with `NC(=O)[C@@H](CO)NC(=O)C(O)[C@@H]1O[C@H](CO)[C@@H](O)[C@H](O)C1O` (stereo partly shown) [Compound 5], `NC(=O)CCNC(=O)C(O)[C@@H]1O[C@H](CO)[C@@H](O)[C@H](O)C1O` (stereo partly shown) [Compound 7] is higher in “% Depigmentation at 100 μM (run 1)” value: 31% for the first, 34% for the second.

`NC(=O)C1CCCN1C(=O)C(O)[C@@H]1O[C@H](CO)[C@@H](O)C(O)C1O` (stereo partly shown) [Compound 6] was tested, and the “% Depigmentation at 100 μM (run 1)” value was 29%.

Same assay, conditions: run 2, 72 hours incubation, optical density (melanin)

First: NC(=O)[C@@H](CO)NC(=O)C(O)[C@@H]1OC[C@@H](O)[C@H](O)C1O (single isomer, unassigned) [Compound 11-dia2]
Second: CCOC(=O)[C@@H](CO)NC(=O)C(O)[C@@H]1OC[C@@H](O)[C@H](O)C1O (stereo partly shown) [Compound 12]
The “% depigmentation at 100 μM (run 2)” value of the first is higher: 32% for the first, 20% for the second.

Going from `CCOC(=O)[C@@H](CO)NC(=O)C(OC(C)=O)C1OC[C@@H](OC(C)=O)[C@H](OC(C)=O)[C@H]1O` (single isomer, unassigned) [Compound 20-dia1] to `CCOC(=O)CNC(=O)C(OC(C)=O)C1OC[C@@H](OC(C)=O)[C@H](OC(C)=O)[C@H]1O` (stereo partly shown) [Compound 19], the “% depigmentation at 100 μM (run 2)” value falls from 23% to 15%.

Each compound was assayed on normal human melanocytes in the same assay as above. Details: 200 μM (max dose tested).
Assay type: cell-based

Going from `CCOC(=O)[C@@H](CO)NC(=O)C(O)[C@@H]1OC[C@@H](O)[C@H](O)C1O` (stereo partly shown) [Compound 12] to `CCOC(=O)CNC(=O)C(OC(C)=O)C1OC[C@@H](OC(C)=O)[C@H](OC(C)=O)[C@H]1O` (stereo partly shown) [Compound 19], the “% depigmentation at the max dose tested 200 μM (run 2)” value rises from 28% to 43%.
